From patent US9155714B2, “Compositions comprising an aromatic alcohol and a TRPV-1 antagonist, and uses thereof” (JOHNSON & JOHNSON CONSUMER INC., priority 2013, dated 2015)
Where “and” joins values, the source holds several entries; their conditions need not be identical. Identical values can stand only once.

Experiments:
Type in all cases: cell-based
[1] = target: T1, human vanilloid receptor-1 (TRPV-1) (Homo sapiens, UniProt Q8NER1); assay: Calcium Flux Test, activity as TRPV-1 agonist
T1 construct: host or cells: HEK293
T1 sequence (Q8NER1 whole entry): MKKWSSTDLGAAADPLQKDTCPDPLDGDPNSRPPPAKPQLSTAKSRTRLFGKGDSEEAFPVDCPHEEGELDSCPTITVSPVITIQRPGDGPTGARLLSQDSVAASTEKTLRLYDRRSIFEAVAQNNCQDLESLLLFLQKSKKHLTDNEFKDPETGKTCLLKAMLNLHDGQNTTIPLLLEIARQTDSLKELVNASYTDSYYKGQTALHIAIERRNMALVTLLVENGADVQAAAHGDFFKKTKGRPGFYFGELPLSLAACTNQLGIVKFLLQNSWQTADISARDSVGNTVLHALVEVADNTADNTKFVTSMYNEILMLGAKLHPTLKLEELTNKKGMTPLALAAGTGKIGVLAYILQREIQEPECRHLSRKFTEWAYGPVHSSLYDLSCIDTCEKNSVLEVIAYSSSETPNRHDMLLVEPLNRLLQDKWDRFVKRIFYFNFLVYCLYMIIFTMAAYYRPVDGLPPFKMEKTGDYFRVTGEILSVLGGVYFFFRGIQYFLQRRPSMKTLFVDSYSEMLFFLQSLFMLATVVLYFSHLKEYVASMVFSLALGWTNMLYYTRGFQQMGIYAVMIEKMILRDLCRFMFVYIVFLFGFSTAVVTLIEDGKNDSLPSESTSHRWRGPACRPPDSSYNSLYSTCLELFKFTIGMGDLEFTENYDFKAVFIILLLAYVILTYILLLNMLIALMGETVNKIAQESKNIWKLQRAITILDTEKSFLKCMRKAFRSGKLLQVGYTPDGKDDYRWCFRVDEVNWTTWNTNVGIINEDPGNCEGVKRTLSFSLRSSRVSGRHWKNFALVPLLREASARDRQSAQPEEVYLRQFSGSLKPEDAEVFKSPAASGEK
Procedure: (§1) The Calcium Flux Test is performed in the following manner: Recombinant HEK293 cells expressing human vanilloid receptor-1 (TRPV-1; accession number AF196175, EMD Millipore, Billerica, Mass.) are grown in D-MEM/F-12 media (Life Technologies, Grand Island, N.Y.) supplemented with 10% fetal bovine serum, 1% non essential amino acids and 400 μg/mL Geneticin (Gibco, Life Technologies). Cells are plated at a concentration of 15,000 cells per well on poly-D-lysine-coated 384 well plates and incubated overnight at 5% CO2 and 37° C. After incubation, culture media is removed from the wells and replaced with 50 μL per well of Fluo-8 No Wash dye solution (#36315, AAT Bioquest, Sunnyvale, Calif.). The Fluo-8 dye solution is prepared by mixing 20 uL of Fluo-8 NW with 30 mL of 0.33× Pluronic® F127 Plus (BASF of Ludwigshafen, Germany) in assay buffer (1×HBSS+2% of HEPES). Fluo-8 dye is incubated for 30 minutes at room temperature. Intracellular calcium (Ca^2+) flux is monitored upon exposure to aromatic alcohol in DMSO vehicle by measuring fluorescence intensity at Ex/Em 490/525 on a Functional Drug Screening System (FDSS; Hamamatsu, […]). Measurements are taken every second for a period of 4 minutes. […] Statistical differences are obtained using One Way ANOVA with Tukey Post-hoc test; statistical significance is defined as P≦0.05.
(§2) Phenoxyethanol was tested at a series of concentrations in DMSO for activity as a TRPV-1 agonist according to the Calcium Flux Test described above. Capsaicin was used as a positive control.
(§3) Maximum RFU values for treatment with phenoxyethanol or capsaisin were compared to the Maximum RFU for a DMSO vehicle alone. Concentrations of phenoxyethanol and capsaicin are reported in milimolar (mM) and nanomolar (nM), respectively.
(§4) Benzyl alcohol and sodium bicarbonate were tested using the Calcium Flux Test.
(§5) Benzyl alcohol and phenethyl alcohol were tested at a series of concentrations in DMSO for activity as a TRPV-1 agonist as described in Example 1. Concentrations of benzyl alcohol and phenethyl alcohol are reported in units of % w/v.

[2] = target: T1, human vanilloid receptor-1 (TRPV-1); assay: Calcium Flux Test, activity as TRPV-1 agonist; design: key: **: Statistically significant; n/s: Not statistically significant
Procedure: as §1, §2, §3, §4, §5

[3] = target: T1, human vanilloid receptor-1 (TRPV-1); assay: Calcium Flux Test, phenoxyethanol replaced with capsaicin (capsaicin-induced calcium flux)
Procedure: as §1
(§6) The Maximum RFU obtained with a given concentration of aromatic alcohol is compared with the Maximum RFU obtained using the same concentration of aromatic alcohol but pretreated with the TRPV-1 antagonist for 5 minutes after dye incubation. Percent inhibition achieved with the TRPV-1 antagonist is calculated as: 100*((Maximum RFU of aromatic alcohol−Maximum RFU of aromatic alcohol pretreated with TRPV-1 antagonist)/Maximum RFU of aromatic alcohol).
(§7) Capsazepine and AMG9810 were tested for activity as TRPV-1 antagonists using the Calcium Flux Test using two different concentrations of phenoxyethanol in DMSO. They were also tested using the Calcium Flux Test in which phenoxyethanol was replaced with capsaicin. […]

[4] = target: T1, human vanilloid receptor-1 (TRPV-1); assay: Calcium Flux Test, inhibition of phenoxyethanol-induced calcium flux; details: for reducing phenoxyethanol-induced calcium flux (result in words): TRPV-1-expressing HEK293 cells
Procedure: as §1, §6, §7

[5] = compound 100 μM, capsaicin 300 nM
[6] = compound 25 μM, phenoxyethanol 2 mM
[7] = compound 25 μM, phenoxyethanol 3 mM
[8] = compound 100 μM, phenoxyethanol 2 mM
[9] = compound 100 μM, phenoxyethanol 3 mM
[10] = AMG9810 625 nM, capsaicin 100 nM
[11] = AMG9810 625 nM, capsaicin 300 nM
[12] = AMG9810 2500 nM, capsaicin 100 nM
[13] = AMG9810 2500 nM, capsaicin 300 nM
[14] = AMG9810 10000 nM, capsaicin 100 nM
[15] = AMG9810 10000 nM, capsaicin 300 nM
[16] = AMG9810 0.6104 nM, phenoxyethanol 2 mM
[17] = AMG9810 2 nM, phenoxyethanol 2 mM
[18] = AMG9810 10 nM, phenoxyethanol 2 mM
[19] = AMG9810 39 nM, phenoxyethanol 2 mM
[20] = AMG9810 39 nM, phenoxyethanol 3 mM
[21] = AMG9810 156 nM, phenoxyethanol 2 mM
[22] = AMG9810 156 nM, phenoxyethanol 3 mM
[23] = AMG9810 625 nM, phenoxyethanol 2 mM
[24] = AMG9810 625 nM, phenoxyethanol 3 mM
[25] = AMG9810 2500 nM, phenoxyethanol 2 mM
[26] = AMG9810 2500 nM, phenoxyethanol 3 mM
[27] = AMG9810 10000 nM, phenoxyethanol 2 mM
[28] = AMG9810 10000 nM, phenoxyethanol 3 mM

In the case of `O=C([O-])O.[Na+]` [Sodium Bicarbonate, sodium bicarbonate], the “intracellular calcium flux in TRPV-1-transfected HEK cells (result in words)” value [1] is reported as “do not Induce Calcium Flux”, the “Maximum RFU (mean ± SD)” value ([1]; sodium bicarbonate 0.03125 mM) is reported as 109.99 ± 1.37 RFU and the “Maximum RFU (mean ± SD)” value ([1]; sodium bicarbonate 0.0625 mM) is reported as 102.15 ± 4.19 RFU. For the same compound, the “Maximum RFU (mean ± SD)” value ([1]; sodium bicarbonate 0.125 mM) was 114.34 ± 6.46 RFU, the “Maximum RFU (mean ± SD)” value ([1]; sodium bicarbonate 0.25 mM) was 124.90 ± 8.41 RFU and the “Maximum RFU (mean ± SD)” value ([1]; sodium bicarbonate 0.5 mM) was 3.39 ± 2.66 RFU. The “P < 0.05 Compared to Vehicle” value ([2]; sodium bicarbonate 0.03125 mM) was “n/s”, the “P < 0.05 Compared to Vehicle” value ([2]; sodium bicarbonate 0.0625 mM) was “n/s” and the “P < 0.05 Compared to Vehicle” value ([2]; sodium bicarbonate 0.125 mM) was “n/s”. The “P < 0.05 Compared to Vehicle” value ([2]; sodium bicarbonate 0.25 mM) was “**” and the “P < 0.05 Compared to Vehicle” value ([2]; sodium bicarbonate 0.5 mM) was “n/s”.
`OCCc1ccccc1` [Phenethyl Alcohol, phenethyl alcohol] was tested, and the “intracellular calcium flux in TRPV-1-transfected HEK cells (result in words)” value [1] was “dose dependent increases”, the “Maximum RFU” value ([1]; phenethyl alcohol 0.000002 % w/v alone (no antagonist)) was 12.8 ± 1.35 RFU and 6.43 RFU and 12.28 ± 3.52 RFU and the “Maximum RFU” value ([1]; phenethyl alcohol 0.013 % w/v alone (no antagonist)) was 185.92 ± 28.6 RFU and 123.10 RFU and 200.02 ± 6.15 RFU. The “Maximum RFU” value ([1]; phenethyl alcohol 0.04 % w/v alone (no antagonist)) was 548.5 ± 37.22 RFU and 441.18 RFU and 470.23 ± 7.11 RFU and the “Maximum RFU” value ([1]; phenethyl alcohol 0.12 % w/v alone (no antagonist)) was 755.2 ± 12.89 RFU and 605.31 RFU and 580.44 ± 3.06 RFU.
With `CN(C)CCOC(c1ccccc1)c1ccccc1` [Diphenhydramine, diphenhydramine] the “Maximum RFU (mean ± SD)” value [3, 5] was 825.37 ± 9.95 RFU, the “reducing phenoxyethanol-induced calcium flux (result in words)” value [4] was “none of hydrocortisone, diphenhydramine or lidocaine were effective” and the “Maximum RFU (mean ± SD)” value [4, 6] was 158.25 ± 0.69 RFU. The “Maximum RFU (mean ± SD)” value [4, 7] was 312.62 ± 67.77 RFU, the “Maximum RFU (mean ± SD)” value [4, 8] was 141.61 ± 33.91 RFU and the “Maximum RFU (mean ± SD)” value [4, 9] was 195.47 ± 53.34 RFU.
With `CCN(CC)CC(=O)Nc1c(C)cccc1C` [Lidocaine, lidocaine] the “reducing phenoxyethanol-induced calcium flux (result in words)” value [4] was “none of hydrocortisone, diphenhydramine or lidocaine were effective”, the “Maximum RFU (mean ± SD)” value [4, 6] was 124.96 ± 22.24 RFU and the “Maximum RFU (mean ± SD)” value [4, 7] was 197.45 ± 41.14 RFU. The “Maximum RFU (mean ± SD)” value [4, 8] was 116.25 ± 25.92 RFU and the “Maximum RFU (mean ± SD)” value [4, 9] was 205.92 ± 16.97 RFU.
`C[C@]12CCC(=O)C=C1CC[C@@H]1[C@@H]2[C@@H](O)C[C@@]2(C)[C@H]1CC[C@]2(O)C(=O)CO` [Hydrocortisone, hydrocortisone] was tested, and the “Maximum RFU (mean ± SD)” value ([3]; compound 25 μM, capsaicin 300 nM) was 950.97 ± 49.52 RFU, the “Maximum RFU (mean ± SD)” value [3, 5] was 963.83 ± 65.21 RFU and the “reducing phenoxyethanol-induced calcium flux (result in words)” value [4] was “none of hydrocortisone, diphenhydramine or lidocaine were effective”. For the same compound, the “Maximum RFU (mean ± SD)” value [4, 6] was 171.65 ± 83.27 RFU, the “Maximum RFU (mean ± SD)” value [4, 7] was 309.90 ± 40.00 RFU and the “Maximum RFU (mean ± SD)” value [4, 8] was 160.66 ± 30.14 RFU. The “Maximum RFU (mean ± SD)” value [4, 9] was 225.19 ± 38.09 RFU.
`CC(C)(C)c1ccc(/C=C/C(=O)Nc2ccc3c(c2)OCCO3)cc1` [AMG9810, (E)-3-(4-t-butylphenyl)-N-(2,3-dihydrobenzo[b][1,4]dioxin-6-yl)acrylamide] was tested, and the “Maximum RFU (mean ± SD)” value ([3]; AMG9810 39 nM, capsaicin 100 nM) was 942.69 ± 88.43 RFU, the “Maximum RFU (mean ± SD)” value ([3]; AMG9810 39 nM, capsaicin 300 nM) was 975.35 ± 32.01 RFU and the “Maximum RFU (mean ± SD)” value ([3]; AMG9810 156 nM, capsaicin 100 nM) was 916.79 ± 31.53 RFU. For the same compound, the “Maximum RFU (mean ± SD)” value ([3]; AMG9810 156 nM, capsaicin 300 nM) was 958.56 ± 16.66 RFU, the “Maximum RFU (mean ± SD)” value [3, 10] was 735.36 ± 114.75 RFU and the inhibition at 0.625 µM [3, 10] was 13.4%. For the same compound, the “Maximum RFU (mean ± SD)” value [3, 11] was 747.36 ± 77.35 RFU, the inhibition at 0.625 µM [3, 11] was 14.6% and the “Maximum RFU (mean ± SD)” value [3, 12] was 85.41 ± 20.60 RFU. The inhibition at 2.5 µM [3, 12] was 90%, the “Maximum RFU (mean ± SD)” value [3, 13] was 78.33 ± 46.56 RFU and the inhibition at 2.5 µM [3, 13] was 91%. The “Maximum RFU (mean ± SD)” value [3, 14] was 47.00 ± 11.29 RFU, the inhibition at 10 µM [3, 14] was 94.5% and the “Maximum RFU (mean ± SD)” value [3, 15] was 44.15 ± 2.20 RFU. The inhibition at 10 µM [3, 15] was 95%, the “Maximum RFU (mean ± SD)” value ([4]; AMG9810 0.1526 nM, phenoxyethanol 2 mM) was 261.54 ± 114.76 RFU and the “Maximum RFU (mean ± SD)” value ([4]; AMG9810 0.1526 nM, phenoxyethanol 3 mM) was 412.30 ± 110.68 RFU. The “Maximum RFU (mean ± SD)” value [4, 16] was 189.72 ± 34.94 RFU, the inhibition at 0.0006104 µM [4, 16] was 12.3% and the “Maximum RFU (mean ± SD)” value ([4]; AMG9810 0.6104 nM, phenoxyethanol 3 mM) was 405.29 ± 152.93 RFU. The “Maximum RFU (mean ± SD)” value [4, 17] was 202.96 ± 18.01 RFU, the inhibition at 0.002 µM [4, 17] was 6.2% and the “Maximum RFU (mean ± SD)” value ([4]; AMG9810 2 nM, phenoxyethanol 3 mM) was 265.02 ± 52.11 RFU. The “Maximum RFU (mean ± SD)” value [4, 18] was 110.26 ± 27.80 RFU, the inhibition at 0.01 µM [4, 18] was 49% and the “Maximum RFU (mean ± SD)” value ([4]; AMG9810 10 nM, phenoxyethanol 3 mM) was 315.60 ± 125.77 RFU. The “Maximum RFU (mean ± SD)” value [4, 19] was 165.37 ± 162.35 RFU, the inhibition at 0.039 µM [4, 19] was 23.6% and the “Maximum RFU (mean ± SD)” value [4, 20] was 98.74 ± 23.34 RFU. The inhibition at 0.039 µM [4, 20] was 56%, the “Maximum RFU (mean ± SD)” value [4, 21] was 58.21 ± 5.97 RFU and the inhibition at 0.156 µM [4, 21] was 73.1%. For the same compound, the “Maximum RFU (mean ± SD)” value [4, 22] was 75.59 ± 10.97 RFU, the inhibition at 0.156 µM [4, 22] was 66.3% and the “Maximum RFU (mean ± SD)” value [4, 23] was 55.53 ± 8.48 RFU. The inhibition at 0.625 µM [4, 23] was 74.3%, the “Maximum RFU (mean ± SD)” value [4, 24] was 58.16 ± 1.97 RFU and the inhibition at 0.625 µM [4, 24] was 74.1%. For the same compound, the “Maximum RFU (mean ± SD)” value [4, 25] was 58.00 ± 5.34 RFU, the inhibition at 2.5 µM [4, 25] was 73.2% and the “Maximum RFU (mean ± SD)” value [4, 26] was 68.59 ± 4.15 RFU. The inhibition at 2.5 µM [4, 26] was 69.4%, the “Maximum RFU (mean ± SD)” value [4, 27] was 59.78 ± 3.84 RFU and the inhibition at 10 µM [4, 27] was 72.4%. The “Maximum RFU (mean ± SD)” value [4, 28] was 65.74 ± 4.33 RFU and the inhibition at 10 µM [4, 28] was 70.7%.
